Consider two sequences from patent publication US20050208058A1, “Compositions and methods for modulating cell division” (priority 2003, published 2005).

d = 2'-deoxy (DNA)

Holding throughout (assay type): cell-based, human
The subject of data set [1] is RPE cells. As to the kind of experiment: BrDU staining of cells treated in tandem with two siRNAs (p53 dependence). The conditions noted are these: FIG. 6B. On the procedure:
(§1) To further study the effects of silencing centrosomal genes, the following cell cycle experiments were performed using RPE cells. In immunofluorescence experiments, cells were delivered by OLIGOFECTAMINE in a media solution containing between 1-100 nanomolar concentration of siRNAs. After 4 hours of incubation with lipofectamine, cells were washed, and cell cycle progression was assayed by (i) treating cells with 5-Bromo-2′-deoxyuridine (BrDU from Sigma, St Louis, Mo.) for 24 hours and staining for BrDU or (ii) staining cells with antibody to Ki-67 (BD Biosciences) according to manufacturer's instructions. BrDU treatment and staining were performed as follows: after 50-70 hours incubation with siRNA, BrDU was added to cells at a final concentration of 5 μg/ml. Cells were fixed in −20° C. methanol and then treated with 2N HCL at 22° C. for 30 minutes, incubated with 1:500 mouse anti-BrdU antibody (Becton Dickinson, Palo Alto, Calif.), and labeled with 1:1,000 goat FITC-mouse antibody (Molecular Probes, Inc.). Cells were also treated with 4′,6-diamidino-2-phenylindole (DAPI) (Molecular Probes) according to the manufacturer's instructions. Cells were prepared, imaged, and the resulting images were deconvolved as described in Example 1.
(§2) A number of experiments were conducted to determine if p53 is required for the cell cycle arrest phenotype described herein. FACS analysis of tandem siRNA-treated cells was performed as described in Example 2. BrDU and DAPI imaging was performed as described in Example 2. Intracellular p53 was visualized using anti-p53 antibody that is specific for activated p53 (i.e., p53 phosphorylated at Serine 33) (“α-Pser33-p53” provided by Yoichi Taya and described in Kishis et al., J. Biol. Chem., 276:39115-3922, 2001)

In data set [2] the test system is RPE cells. The data set can be described thus: FACS of cells treated in tandem with two siRNAs (p53 dependence). The conditions noted are these: tandem treatment sip53 then siGCP2; FIG. 6A. As for the experimental part:
For flow cytometry (i.e., fluorescence-activated cell sorter or FACS) experiments, siRNAs were delivered to cells as described above, and were incubated for 50-70 hours. To synchronize cells, nocodazole was added to the cells to a concentration of 5 μg/mL for 12 hours. Cells were stained with propidium iodide and analyzed by flow cytometry (FACSCAN; Becton Dickinson) using FLOJO® software (Tree Star, Inc., Ashland, Oreg.).
as §2
In FIG. 6A each line tracing represents FACS data from cells treated in tandem with the siRNAs directed to the gene products indicated above the line. Cells were first treated with siRNA directed to the gene product to the left of the slash. Up to 24 hours later, siRNA directed to the gene product to the right of the slash was added. […] 12 hours before collecting the cells, nocodazole was added to the cells analyzed in the bottom three line tracings. […]

For data set [3], the system named is p53. The data set can be described thus: Western blot of p53 in cytoplasmic and nuclear fractions. The conditions noted are these: relative to mock or silamin transfected cells; FIG. 6D. An excerpt: The Western blot shown cytoplasmic (cyt), and nuclear (nuc) cell fractions blotted with an antibody to p53 (from Callbiochem, San Diego, Calif.). Nuclear fractions were blotted with an antibody for H1 as a control for loading.

Data set [4] has as its system RPE cells. As to the kind of experiment: BrDU incorporation after siRNA treatment and nocodazole synchronization. The conditions noted are these: relative to control cells (siRNA to lamin), after nocodazole release; FIG. 2A. As for the experimental part: as §1
Upon release from nocodazole treatment, proliferating cells typically resume cell cycle progression. Chromosomal DNA in the cells was imaged using DAPI (faint ghost-like staining) and/or BrDU (brighter staining). Although DAPI can be used to visualize DNA at any stage of the cell cycle, BrDU is only incorporated into newly synthesized DNA only during S-phase. Thus, BrDU incorporation can be used as a marker of cells that progress through at least one S-phase of the cell cycle. Control cells in this experiment were treated with siRNA to lamin.

Data set [5] concerns CDK2. The data set can be described thus: CDK2 kinase assay from siRNA-treated cells. The conditions noted are these: after sustained siRNA treatment, vs siRNA to laminin; FIG. 2C. On the procedure:
Kinase assays were done on RPE cells treated with siRNAs as described above. Treated cells were lysed in 1% NP-40 lysis buffer (NP-40 buffer: 20 mM NaPO4 pH 7.4, 1% NP-40, 250 mM NaCl, 5 mM ethylenediaminetetraacetic acid (EDTA), 5 mM dithiothreitol (DTT), 1 mM phenylmethylsulfonyl fluoride, 2 μg/ml leupeptin, and 1.5 μg/ml aprotinin) supplemented with 25 mM-glycerophosphate. For measurement of CDK2-associated activity in vitro, the complexes were immunoprecipitated for 2 hours at 4° C. using anti-cylin A antibody (Santa Cruz Biotechnology). Immunocomplexes were bound to protein A-Sepharose beads for an additional hour at 4° C. and washed four times with lysis buffer followed by one wash with the kinase buffer (20 mM Tris-HCl pH 7.5, 50 mM KCl, 7.5 mM MgCl 2, 1 mM DTT, 25 mM-glycerophosphate, 1 mM phenylmethylsulfonyl fluoride, 2 μg/ml leupeptin, and 1.5 μg/ml aprotinin). […] Phosphorylated proteins were analyzed on 10% SDS-polyacrylamide gels followed by autoradiography and quantified by phosphorimaging (Molecular Imager GS-250; Bio-Rad, Hercules, Calif.).
FIG. 2C is a graph quantifying the results of CDK2 kinase assays from cells treated with siRNA directed to laminin or pericentrin B. CDK2 activity is required for proliferating cells through to progress through the G1 stage of the cell cycle.

Turning to “GGACAAGGGUUGGGCUGGG (siRNA; RNA, 3' dTdT, backbone not given here) [sip53, siRNA directed to p53, reference compound]”, the “effect of pretreatment on number of cells that divided after sipericentrin or siGCP2” value in data set [1] (sip53 pretreatment, 6C) was “increased the number of cells that divided”. Moreover, the “effect of pre-treatment on siGCP2-mediated block of the nocodazole shift” value in data set [2] was “inhibited the siGCP-mediated block of the nocodazole shift”. Further, the “nuclear p53 (Western blot)” value in data set [3] was “nuclear p53 is activated”.

Consider “UUGGAACAGCUGCAGCAGA (siRNA; RNA, 3' dTdT, backbone not given here) [pericentrin B, siRNA directed only to pericentrin B (Kendrin)]”, for which the “incorporation of BrDU into chromosomal material” value in data set [4] was “clearly inhibited incorporation of BrDU”. Moreover, the “cells incorporating BrDU” value in data set [1] (tandem treatment silaminin then indicated siRNA, vs silamin/silamin) is “substantially fewer”. Also, the “CDK2 expression and/or activity” value in data set [5] was “greatly diminished”.
